Reference: the NIST ThermoML archive (doi:10.1016/j.jct.2019.02.025)

What was measured:
[1] = for mass density / kinematic viscosity: 101.33 kPa, Liquid; for mass density: Vibrating tube method; for surface tension liquid-gas / kinematic viscosity: Surface laser light scattering (SLLS)
[2] = refractive index (Na D-line) (dimensionless); conditions: 101.33 kPa, Liquid, Standard Abbe refractometry

CCCCCC(=O)OC [methyl hexanoate]
Conditions | kinematic viscosity [m2/s] | mass density [kg/m3] | refractive index | surface tension liquid-gas [mN/m]
[1], 293.15 K | – | 884.44 | – | –
[1], 298.14 K | 1.02e-06 | – | – | 24.58
[1], 303.15 K | – | 874.79 | – | –
[1], 313.15 K | – | 865.12 | – | –
[1], 323.15 K | – | 855.4 | – | –
[1], 323.17 K | 7.49e-07 | – | – | 22.44
[1], 333.15 K | – | 845.68 | – | –
[1], 343.15 K | – | 835.87 | – | –
[1], 348.18 K | 5.74e-07 | – | – | 20.35
[1], 353.15 K | – | 825.97 | – | –
[1], 363.15 K | – | 815.95 | – | –
[1], 373.15 K | – | 805.49 | – | –
[1], 373.21 K | 4.53e-07 | – | – | 18.03
[1], 383.15 K | – | 795.6 | – | –
[1], 393.15 K | – | 785.23 | – | –
[1], 398.2 K | 3.74e-07 | – | – | 15.63
[1], 403.15 K | – | 774.67 | – | –
[1], 413.15 K | – | 763.86 | – | –
[1], 423.17 K | 3.25e-07 | – | – | 13.36
[1], 448.17 K | 2.82e-07 | – | – | 11.18
[2], 278.15 K | – | – | 1.41212 | –
[2], 283.15 K | – | – | 1.40984 | –
[2], 288.15 K | – | – | 1.40757 | –
[2], 293.15 K | – | – | 1.40529 | –
[2], 298.15 K | – | – | 1.403 | –
[2], 303.15 K | – | – | 1.4007 | –
[2], 308.15 K | – | – | 1.39841 | –
[2], 313.15 K | – | – | 1.3961 | –
[2], 318.15 K | – | – | 1.39373 | –
[2], 323.15 K | – | – | 1.39136 | –
[2], 328.15 K | – | – | 1.38902 | –
[2], 333.15 K | – | – | 1.38667 | –
[2], 338.15 K | – | – | 1.38432 | –
[2], 343.15 K | – | – | 1.38169 | –
[2], 348.15 K | – | – | 1.37961 | –
[2], 353.15 K | – | – | 1.37725 | –
[2], 358.15 K | – | – | 1.3749 | –

CCCCCCC(=O)OC [methyl heptanoate]
Conditions | kinematic viscosity [m2/s] | mass density [kg/m3] | refractive index | surface tension liquid-gas [mN/m]
[1], 293.15 K | – | 879.29 | – | –
[1], 298.13 K | 1.22e-06 | – | – | 24.75
[1], 303.15 K | – | 870.75 | – | –
[1], 313.15 K | – | 861.6 | – | –
[1], 323.15 K | – | 852.39 | – | –
[1], 323.17 K | 8.92e-07 | – | – | 23
[1], 333.15 K | – | 843.15 | – | –
[1], 343.15 K | – | 833.87 | – | –
[1], 348.19 K | 6.79e-07 | – | – | 21.02
[1], 353.15 K | – | 824.55 | – | –
[1], 363.15 K | – | 814.17 | – | –
[1], 373.15 K | – | 805.69 | – | –
[1], 373.26 K | 5.32e-07 | – | – | 18.72
[1], 383.15 K | – | 796.11 | – | –
[1], 393.15 K | – | 786.44 | – | –
[1], 398.29 K | 4.34e-07 | – | – | 16.66
[1], 403.15 K | – | 776.63 | – | –
[1], 413.15 K | – | 766.7 | – | –
[1], 423.15 K | – | 756.62 | – | –
[1], 423.26 K | 3.66e-07 | – | – | 14.43
[1], 433.15 K | – | 746.31 | – | –
[1], 448.29 K | 3.14e-07 | – | – | 12.33
[2], 278.15 K | – | – | 1.41865 | –
[2], 283.15 K | – | – | 1.41643 | –
[2], 288.15 K | – | – | 1.41421 | –
[2], 293.15 K | – | – | 1.41199 | –
[2], 298.15 K | – | – | 1.40976 | –
[2], 303.15 K | – | – | 1.40753 | –
[2], 308.15 K | – | – | 1.4053 | –
[2], 313.15 K | – | – | 1.40301 | –
[2], 318.15 K | – | – | 1.4007 | –
[2], 323.15 K | – | – | 1.39841 | –
[2], 328.15 K | – | – | 1.39614 | –
[2], 333.15 K | – | – | 1.39389 | –
[2], 338.15 K | – | – | 1.39167 | –
[2], 343.15 K | – | – | 1.38946 | –
[2], 348.15 K | – | – | 1.38724 | –
[2], 353.15 K | – | – | 1.38501 | –
[2], 358.15 K | – | – | 1.38276 | –

CCCCCCCCCCCCCC(=O)OCC [ethyl tetradecanoate]
Conditions | kinematic viscosity [m2/s] | mass density [kg/m3] | refractive index | surface tension liquid-gas [mN/m]
[1], 293.15 K | – | 860.8 | – | –
[1], 303.15 K | – | 853.07 | – | –
[1], 313.15 K | – | 845.46 | – | –
[1], 323.14 K | 2.63e-06 | – | – | 24.08
[1], 323.15 K | – | 837.86 | – | –
[1], 333.15 K | – | 830.3 | – | –
[1], 343.15 K | – | 822.77 | – | –
[1], 348.16 K | 1.9e-06 | – | – | 22.25
[1], 353.15 K | – | 815.26 | – | –
[1], 363.15 K | – | 807.75 | – | –
[1], 373.15 K | – | 799.27 | – | –
[1], 373.22 K | 1.43e-06 | – | – | 20.56
[1], 383.15 K | – | 792.77 | – | –
[1], 393.15 K | – | 785.27 | – | –
[1], 398.24 K | 1.12e-06 | – | – | 19.48
[1], 403.15 K | – | 777.75 | – | –
[1], 413.15 K | – | 770.21 | – | –
[1], 423.15 K | – | 762.65 | – | –
[1], 423.26 K | 8.97e-07 | – | – | 18.15
[1], 433.15 K | – | 755.04 | – | –
[1], 443.15 K | – | 747.42 | – | –
[1], 448.28 K | 7.25e-07 | – | – | 16.53
[1], 453.15 K | – | 739.78 | – | –
[2], 288.15 K | – | – | 1.43841 | –
[2], 293.15 K | – | – | 1.43636 | –
[2], 298.15 K | – | – | 1.43432 | –
[2], 303.15 K | – | – | 1.4323 | –
[2], 308.15 K | – | – | 1.43026 | –
[2], 313.15 K | – | – | 1.4282 | –
[2], 318.15 K | – | – | 1.42613 | –
[2], 323.15 K | – | – | 1.42407 | –
[2], 328.15 K | – | – | 1.42205 | –
[2], 333.15 K | – | – | 1.42004 | –
[2], 338.15 K | – | – | 1.41803 | –
[2], 343.15 K | – | – | 1.41603 | –
[2], 348.15 K | – | – | 1.41406 | –
[2], 353.15 K | – | – | 1.41208 | –
[2], 358.15 K | – | – | 1.4101 | –
